Values after ≈ are worked out from the molar mass of the structure shown.
Key:
Format in all cases: functional
[1] = tested on: Mycobacterium tuberculosis; experiment: Antimycobacterial activity against Mycobacterium tuberculosis H37Rv assessed as growth inhibition at MIC measured within 10 days by BACTEC MGIT method
Candida albicans [2] = experiment: Antifungal activity against Candida albicans MTCC 183 assessed as growth inhibition at 3.12 to 50 ug/mL after 24 hr by agar disk diffusion method
Candida albicans [3] = experiment: Antifungal activity against Candida albicans MTCC 183 assessed as growth inhibition after 48 hr by agar streak dilution method; settings: MTCC 183, 48 h
Staphylococcus aureus [4] = experiment: Antibacterial activity against Staphylococcus aureus MTCC 96 assessed as growth inhibition after 24 hr by agar streak dilution method; settings: MTCC 96, 24 h
Aspergillus niger [5] = experiment: Antifungal activity against Aspergillus niger MTCC 282 assessed as growth inhibition at 3.12 to 50 ug/mL after 24 hr by agar disk diffusion method
Aspergillus fumigatus [6] = experiment: Antifungal activity against Aspergillus fumigatus MTCC 343 assessed as growth inhibition at 3.12 to 50 ug/mL after 24 hr by agar disk diffusion method
Klebsiella pneumoniae [7] = experiment: Antibacterial activity against Klebsiella pneumoniae MTCC 109 assessed as growth inhibition at 3.12 to 50 ug/mL after 24 hr by agar disk diffusion method
[8] = tested on: Mycobacterium tuberculosis; experiment: Antimycobacterial activity against Mycobacterium tuberculosis H37Rv assessed as growth inhibition measured within 10 days by BACTEC MGIT method; settings: 240 h
Klebsiella pneumoniae [9] = experiment: Antibacterial activity against Klebsiella pneumoniae MTCC 109 assessed as growth inhibition after 24 hr by agar streak dilution method; settings: MTCC 109, 24 h
Staphylococcus aureus [10] = experiment: Antibacterial activity against Staphylococcus aureus MTCC 96 assessed as growth inhibition at 3.12 to 50 ug/mL after 24 hr by agar disk diffusion method
Pseudomonas aeruginosa [11] = experiment: Antibacterial activity against Pseudomonas aeruginosa MTCC 741 assessed as growth inhibition at 3.12 to 50 ug/mL after 24 hr by agar disk diffusion method
Bacillus cereus [12] = experiment: Antibacterial activity against Bacillus cereus MTCC 430 assessed as growth inhibition after 24 hr by agar streak dilution method; settings: MTCC 430, 24 h
Salmonella typhi [13] = experiment: Antibacterial activity against Salmonella enterica subsp. enterica serovar Typhi MTCC 733 assessed as growth inhibition at 3.12 to 50 ug/mL after 24 hr by agar disk diffusion method
Salmonella typhi [14] = experiment: Antibacterial activity against Salmonella enterica subsp. enterica serovar Typhi MTCC 733 assessed as growth inhibition after 24 hr by agar streak dilution method; settings: MTCC 733, 24 h
Proteus vulgaris [15] = experiment: Antibacterial activity against Proteus vulgaris MTCC 1771 assessed as growth inhibition after 24 hr by agar streak dilution method; settings: MTCC 1771, 24 h
Pseudomonas aeruginosa [16] = experiment: Antibacterial activity against Pseudomonas aeruginosa MTCC 741 assessed as growth inhibition after 24 hr by agar streak dilution method; settings: MTCC 741, 24 h
Aspergillus clavatus [17] = experiment: Antifungal activity against Aspergillus clavatus MTCC 1323 assessed as growth inhibition after 48 hr by agar streak dilution method; settings: MTCC 1323, 48 h
Escherichia coli [18] = experiment: Antibacterial activity against Escherichia coli MTCC 739 assessed as growth inhibition after 24 hr by agar streak dilution method; settings: MTCC 739, 24 h
Aspergillus clavatus [19] = experiment: Antifungal activity against Aspergillus clavatus MTCC 1323 assessed as growth inhibition at 3.12 to 50 ug/mL after 24 hr by agar disk diffusion method
Shigella flexneri [20] = experiment: Antibacterial activity against Shigella flexneri MTCC 1457 assessed as growth inhibition after 24 hr by agar streak dilution method; settings: MTCC 1457, 24 h
Aspergillus niger [21] = experiment: Antifungal activity against Aspergillus niger MTCC 282 assessed as growth inhibition after 48 hr by agar streak dilution method; settings: MTCC 282, 48 h
Bacillus cereus [22] = experiment: Antibacterial activity against Bacillus cereus MTCC 430 assessed as growth inhibition at 3.12 to 50 ug/mL after 24 hr by agar disk diffusion method
[23] = tested on: Mycobacterium tuberculosis; experiment: Antimycobacterial activity against Mycobacterium tuberculosis H37Rv assessed as growth inhibition after 12 to 28 days by Lowenstein and Jensen agar dilution method
Escherichia coli [24] = experiment: Antibacterial activity against Escherichia coli MTCC 739 assessed as growth inhibition at 3.12 to 50 ug/mL after 24 hr by agar disk diffusion method
[25] = tested on: Mycobacterium tuberculosis; experiment: Antimycobacterial activity against Mycobacterium tuberculosis H37Rv assessed as growth inhibition at MIC after 12 to 28 days by Lowenstein and Jensen agar dilution method
Shigella flexneri [26] = experiment: Antibacterial activity against Shigella flexneri MTCC 1457 assessed as growth inhibition at 3.12 to 50 ug/mL after 24 hr by agar disk diffusion method
Proteus vulgaris [27] = experiment: Antibacterial activity against Proteus vulgaris MTCC 1771 assessed as growth inhibition at 3.12 to 50 ug/mL after 24 hr by agar disk diffusion method
Aspergillus fumigatus [28] = experiment: Antifungal activity against Aspergillus fumigatus MTCC 343 assessed as growth inhibition after 48 hr by agar streak dilution method; settings: MTCC 343, 48 h

| SMILES | inhibition zone (IZ) (Candida albicans [2]) | MIC (Candida albicans [3]) | MIC (Staphylococcus aureus [4]) | inhibition zone (IZ) (Aspergillus niger [5]) | inhibition zone (IZ) (Aspergillus fumigatus [6]) | inhibition zone (IZ) (Klebsiella pneumoniae [7]) | MIC [8] | MIC (Klebsiella pneumoniae [9]) | inhibition zone (IZ) (Staphylococcus aureus [10]) | inhibition zone (IZ) (Pseudomonas aeruginosa [11]) | MIC (Bacillus cereus [12]) | inhibition zone (IZ) (Salmonella typhi [13]) | MIC (Salmonella typhi [14]) | MIC (Proteus vulgaris [15]) | MIC (Pseudomonas aeruginosa [16]) | MIC (Aspergillus clavatus [17]) | MIC (Escherichia coli [18]) | inhibition zone (IZ) (Aspergillus clavatus [19]) | MIC (Shigella flexneri [20]) | MIC (Aspergillus niger [21]) | other results |
| --- | --- | --- | --- | --- | --- | --- | --- | --- | --- | --- | --- | --- | --- | --- | --- | --- | --- | --- | --- | --- | --- |
| CCOc1ccc2nc(NC(=O)CNc3ccc(-c4nc(N5CC(C)CC(C)C5)nc(N5CC(C)CC(C)C5)n4)cc3)sc2c1 (stereo not drawn) | 25 mm | 12.5 µg/mL (≈ 19.9 µM) | 6.25 µg/mL (≈ 9.94 µM) | 20 mm | 16 mm | 24 mm | 6.25 µg/mL (≈ 9.94 µM) | 50 µg/mL (≈ 79.5 µM) | 23 mm | 23 mm | 25 µg/mL (≈ 39.8 µM) | 19 mm | 50 µg/mL (≈ 79.5 µM) | 12.5 µg/mL (≈ 19.9 µM) | 12.5 µg/mL (≈ 19.9 µM) | 50 µg/mL (≈ 79.5 µM) | 12.5 µg/mL (≈ 19.9 µM) | 16 mm | 50 µg/mL (≈ 79.5 µM) | 25 µg/mL (≈ 39.8 µM) | growth inhibition (GI) [1]: 99%; inhibition zone (IZ) (Bacillus cereus [22]): 24 mm; MIC [23]: 6.25 µg/mL (≈ 9.94 µM); inhibition zone (IZ) (Escherichia coli [24]): 23 mm; growth inhibition (GI) [25]: 99%; inhibition zone (IZ) (Shigella flexneri [26]): 17 mm; inhibition zone (IZ) (Proteus vulgaris [27]): 26 mm; MIC (Aspergillus fumigatus [28]): 50 µg/mL (≈ 79.5 µM) |
| CC1CC(C)CN(c2nc(-c3ccc(NCC(=O)Nc4nc5ccc(F)cc5s4)cc3)nc(N3CC(C)CC(C)C3)n2)C1 (stereo not drawn) | 23 mm | 50 µg/mL (≈ 82.9 µM) | 3.12 µg/mL (≈ 5.18 µM) | 22 mm | 25 mm | 25 mm | 6.25 µg/mL (≈ 10.4 µM) | 25 µg/mL (≈ 41.5 µM) | 25 mm | 25 mm | 3.12 µg/mL (≈ 5.18 µM) | 23 mm | 12.5 µg/mL (≈ 20.7 µM) | 25 µg/mL (≈ 41.5 µM) | 25 µg/mL (≈ 41.5 µM) | 50 µg/mL (≈ 82.9 µM) | 25 µg/mL (≈ 41.5 µM) | 25 mm | 6.25 µg/mL (≈ 10.4 µM) | 12.5 µg/mL (≈ 20.7 µM) | growth inhibition (GI) [1]: 99%; inhibition zone (IZ) (Bacillus cereus [22]): 28 mm; MIC [23]: 3.12 µg/mL (≈ 5.18 µM); inhibition zone (IZ) (Escherichia coli [24]): 20 mm; growth inhibition (GI) [25]: 99%; inhibition zone (IZ) (Shigella flexneri [26]): 26 mm; inhibition zone (IZ) (Proteus vulgaris [27]): 25 mm; MIC (Aspergillus fumigatus [28]): 25 µg/mL (≈ 41.5 µM) |
| CC1CC(C)CN(c2nc(-c3ccc(NCC(=O)Nc4ccccc4)cc3)nc(N3CC(C)CC(C)C3)n2)C1 (stereo not drawn) | <10 mm | > 50 µg/mL | 50 µg/mL (≈ 94.7 µM) | <10 mm | <10 mm | <10 mm | > 6.25 µg/mL | 50 µg/mL (≈ 94.7 µM) | 11 mm | 19 mm | 50 µg/mL (≈ 94.7 µM) | <10 mm | 50 µg/mL (≈ 94.7 µM) | 50 µg/mL (≈ 94.7 µM) | 50 µg/mL (≈ 94.7 µM) | > 50 µg/mL | 50 µg/mL (≈ 94.7 µM) | <10 mm | 50 µg/mL (≈ 94.7 µM) | 50 µg/mL (≈ 94.7 µM) | inhibition zone (IZ) (Bacillus cereus [22]): 12 mm; MIC [23]: 250 µg/mL (≈ 474 µM); inhibition zone (IZ) (Escherichia coli [24]): <10 mm; growth inhibition (GI) [25]: 95%; inhibition zone (IZ) (Shigella flexneri [26]): <10 mm; inhibition zone (IZ) (Proteus vulgaris [27]): 14 mm; MIC (Aspergillus fumigatus [28]): 50 µg/mL (≈ 94.7 µM) |
| CC1CC(C)CN(c2nc(-c3ccc(NCC(=O)Nc4ccc(Cl)cc4)cc3)nc(N3CC(C)CC(C)C3)n2)C1 (stereo not drawn) | <10 mm | > 50 µg/mL | 25 µg/mL (≈ 44.5 µM) | <10 mm | 14 mm | 21 mm | > 6.25 µg/mL | 50 µg/mL (≈ 88.9 µM) | 18 mm | 26 mm | 50 µg/mL (≈ 88.9 µM) | 18 mm | 50 µg/mL (≈ 88.9 µM) | 50 µg/mL (≈ 88.9 µM) | 25 µg/mL (≈ 44.5 µM) | > 50 µg/mL | 50 µg/mL (≈ 88.9 µM) | <10 mm | 12.5 µg/mL (≈ 22.2 µM) | 50 µg/mL (≈ 88.9 µM) | inhibition zone (IZ) (Bacillus cereus [22]): 13 mm; MIC [23]: 25 µg/mL (≈ 44.5 µM); inhibition zone (IZ) (Escherichia coli [24]): 12 mm; growth inhibition (GI) [25]: 98%; inhibition zone (IZ) (Shigella flexneri [26]): 24 mm; inhibition zone (IZ) (Proteus vulgaris [27]): 21 mm; MIC (Aspergillus fumigatus [28]): 50 µg/mL (≈ 88.9 µM) |
| CC1CC(C)CN(c2nc(-c3ccc(NCC(=O)Nc4ccc(Br)cc4)cc3)nc(N3CC(C)CC(C)C3)n2)C1 (stereo not drawn) | 13 mm | 50 µg/mL (≈ 82.4 µM) | 3.12 µg/mL (≈ 5.14 µM) | 12 mm | 23 mm | 24 mm | 6.25 µg/mL (≈ 10.3 µM) | 25 µg/mL (≈ 41.2 µM) | 24 mm | 27 mm | 6.25 µg/mL (≈ 10.3 µM) | 20 mm | 25 µg/mL (≈ 41.2 µM) | 50 µg/mL (≈ 82.4 µM) | 12.5 µg/mL (≈ 20.6 µM) | 50 µg/mL (≈ 82.4 µM) | 25 µg/mL (≈ 41.2 µM) | 25 mm | 12.5 µg/mL (≈ 20.6 µM) | 50 µg/mL (≈ 82.4 µM) | growth inhibition (GI) [1]: 99%; inhibition zone (IZ) (Bacillus cereus [22]): 27 mm; MIC [23]: 3.12 µg/mL (≈ 5.14 µM); inhibition zone (IZ) (Escherichia coli [24]): 19 mm; growth inhibition (GI) [25]: 99%; inhibition zone (IZ) (Shigella flexneri [26]): 22 mm; inhibition zone (IZ) (Proteus vulgaris [27]): 13 mm; MIC (Aspergillus fumigatus [28]): 50 µg/mL (≈ 82.4 µM) |

From ChEMBL document CHEMBL3046161, “Synthesis of potential antitubercular and antimicrobial s-triazine-based scaffolds via Suzuki cross-coupling reaction” (2013)
